In patent publication US11339130B1 (Blade Therapeutics, Inc., priority 2016, dated 2022):

Molecular target: T1, rat calpain 1 (Rattus norvegicus, UniProt P97571)
T1 construct: made in house
Test: Calpain binding: crystal structure interaction distances, rat calpain 1
Settings: for Interaction Distances P1-Gly113 / Interaction Distances P1-Gly207 / Interaction Distances P1-Met260 / Interaction Distances P1-Ser206 / Interaction Distances P2-Ala273 / Interaction Distances P2-Gly208 / Interaction Distances P2-Gly271 / Interaction Distances P2-His272 / Interaction Distances P2-Ser251 / Interaction Distances P3-Gly207 / Interaction Distances P3-Gly208 / Interaction Distances P3-Ser209: non-polar interactions with rat calpain 1; for Interaction Distances R^10-Gly271 / Interaction Distances R^11-Gly208 / Interaction Distances R^12-His272 / Interaction Distances R^13-Cys115 / Interaction Distances R^13-Gln109: polar interactions with rat calpain 1
Experimental: Calpain 9 Crystallization: A 10 mg/ml solution of rat calpain 1 or human calpain 9 (obtained as described above) was prepared in 50 mM tris (pH 8), 0.5 M NaCl, 1 mM EDTA, 1 mM CaCl2), and 1 mM beta-mercaptoethanol against MCSG1 screen condition C2 (Anatrace, Maumee, Ohio) containing 0.2 M LiSO4, 0.1 M bis-tris (pH 5.5), and 25% PEG 3350. The solution contained 2.5 mM of test compound supplemented with 20% ethylene glycol as a cryo-protectant. The bound protein was crystallized using vapor diffusion, sitting drop, at […]. The space group was P 41 21 2, with unit cell dimensions of 97.2 Å, 97.2 Å, 173.4 Å.
Calpain 1 preparation, crystallization, and data collection: Suitable constructs for expression of rat calpain 1 had been previously established. Expression was performed according to previously established protocols. A purification protocol was established and homogeneous protein was produced in preparative amounts. The calpain 1 protein was purified comprising affinity and gel filtration chromatography steps. This procedure yielded homogenous protein with a purity greater 95% as judged from Coomassie stained SDS-PAGE. The purified protein was used in crystallization trials with test compounds employing both, a standard screen with approximately 1200 different conditions, as well as crystallization conditions identified using literature data. Conditions initially obtained were optimised using standard strategies, systematically varying parameters critically influencing crystallization, such as temperature, protein concentration, drop ratio, and others. These conditions were also refined by systematically varying pH or precipitant concentrations. Crystals were flashfrozen and measured at a temperature of 100 K. The X-ray diffraction data were collected from complex crystals ligands at a synchrotron source using cryogenic conditions. Data were processed using software programs XDS and XSCALE
Key interactions between test compound moieties (with reference to the variables of Formula II) and calpain 1 or calpain 9 residues were determined as set forth in Tables 4-7 below.

T1 sequence (P97571 29-356 limits assumed): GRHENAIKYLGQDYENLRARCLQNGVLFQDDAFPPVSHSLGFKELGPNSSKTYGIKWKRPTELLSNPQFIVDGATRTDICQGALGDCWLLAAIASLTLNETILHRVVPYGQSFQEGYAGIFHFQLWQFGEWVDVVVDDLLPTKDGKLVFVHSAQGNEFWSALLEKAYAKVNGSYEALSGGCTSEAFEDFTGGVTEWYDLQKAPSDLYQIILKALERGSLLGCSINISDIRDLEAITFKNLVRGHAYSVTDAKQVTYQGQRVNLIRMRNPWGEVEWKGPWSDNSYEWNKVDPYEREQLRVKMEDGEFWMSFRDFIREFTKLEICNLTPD

Row | SMILES | Interaction Distances P1-Gly113 | Interaction Distances P1-Gly207 | Interaction Distances P1-Met260 | Interaction Distances P1-Ser206 | Interaction Distances P2-Ala273 | Interaction Distances P2-Gly208 | Interaction Distances P2-Gly271 | Interaction Distances P2-His272 | Interaction Distances P2-Ser251 | Interaction Distances P3-Gly207 | Interaction Distances P3-Gly208 | Interaction Distances P3-Ser209 | Interaction Distances R^10-Gly271 | Interaction Distances R^11-Gly208 | Interaction Distances R^12-His272 | Interaction Distances R^13-Cys115 | Interaction Distances R^13-Gln109
1 | NC(=O)C(=O)[C@H](Cc1ccccc1)NC(=O)c1cnoc1-c1ccccc1 [Compound 60, (S)—N-(4-amino-3,4-dioxo-1-phenylbutan-2-yl)-5-phenylisoxazole-4-carboxamide] | 4.0 Å | 3.7 Å | 3.3 Å | 4.4 Å | 4.1 Å | 3.2 Å | 3.2 Å | 4.2 Å | 4.4 Å | 3.7 Å | 3.3 Å | 4.4 Å | 3.21 Å | 2.9 Å | 2.9 Å | 2.91 Å | 2.91 Å
2 | NC(=O)C(=O)[C@H](Cc1ccccc1)NC(=O)c1cn(C2CC2)nc1-c1ccccc1 [Compound 250, (S)—N-(4-amino-3,4-dioxo-1-phenylbutan-2-yl)-1-cyclopropyl-3-phenyl-1H-pyrazole-4-carboxamide] | 3.8 Å | 3.5 Å | 3.5 Å | 4.1 Å | 4.4 Å | 3.3 Å | 3.4 Å | 4.6 Å | 3.7 Å | 3.6 Å | 3.5 Å | 3.8 Å | 3.28 Å | 2.98 Å | 2.81 Å | 2.96 Å | 3 Å
